Test results: patent US5556870A, “Use of leflunomide for inhibiting interleukin 1 beta” (priority 1993, dated 1996)
“Also recorded” adds a separate entry of the source.

How the values were obtained:
[1] = tested on: IL1β (interleukin 1 beta); experiment: Inhibition of LPS-induced synthesis and liberation of cellular IL1β in human mononuclear cells (sandwich enzyme immuno test of supernatant); type: cell-based; conditions: for activity at 10 µM: concentration 0.01 mmol/l; for activity at 100 µM: concentration 0.1 mmol/l; for inhibitory effect on the synthesis and liberation of cytokines from human blood cells / effect on the IL1β level: in words; for effect on the IL1β level: human mononuclear cells, LPS-induced
Procedure: 10 ml of freshly prepared human citrate blood were carefully underlaid with 15 ml of Lymphoprep® (Molter GmbH, Heidelberg) and then centrifuged at 400×g for 40 min. at 20° C. The cell fraction which was visible as a white ring at the phase boundary was withdrawn with the aid of a syringe, diluted 1:1 (v/v) with PM-16 buffer (from Serva Feinbiochemica GmbH & Co. KG, Heidelberg) and then centrifuged, as above, for 10 min. […] Using a cell counter (type IT, from Coulter Diagnostics, Krefeld), the cell suspension, which is composed of about 90% lymphocytes and 10% monocytes, was adjusted to about 5 million cells/ml. Cell viability was monitored before and after the inhibition experiments using the known lactate dehydrogenase method.
The synthesis and liberation of cellular IL1β was induced by adding a solution of 500 ng of lipopolysaccharide (Salmonella abortus equi, Sigma GmbH, Deisenhofen) in 0.01 ml of dimethyl sulfoxide/water (1:10, v/v) to 0.48 ml of the above-described cell fraction. At the same time, a solution of leflunomide or leflunomide metabolite in 0.01 ml of dimethyl sulfoxide (for the final concentration in each case, see Tab. 1) was added to the cell fraction and the mixture was left at 37° C. for 20 h in a commercially available incubator. After cooling down to 0° C., the samples were centrifuged for 1 min. in a bench centrifuge and in each case 0.025 ml aliquots of the supernatant were examined for their IL1β content using a "sandwich" enzyme-immuno test kit (from Biermann GmbH, Bad Nauheim) in accordance with the manufacturer's instructions. The control values were determined without the addition of leflunomide or metabolite and set at 100%.

[2] = Metabolism of leflunomide in the mononuclear cell test sample (HPLC, time-dependent); type: in vitro ADME, human; conditions: human, mononuclear cells; mononuclear cell test sample, 37° C., HPLC
[3] = tested on: isolated blood cell fraction (mononuclear cells); experiment: as above; type: in vitro ADME, human; conditions: in words; isolated blood cell fraction (mononuclear cells)
NMRI mouse = experiment: Acute toxicity following intraperitoneal administration, NMRI mice; type: in vivo; conditions: after 3 weeks, Litchfield and Wilcoxon, 30240 min
Procedure: (§1) The acute toxicity following intraperitoneal administration of the test substance was carried out using NMRI mice (20 to 25 g) and SD rats (120 to 195 g). The test substance was suspended in a 1% strength solution of sodium carboxymethyl cellulose. The different doses of the test substance were administered to the mice in a volume of 10 ml/kg of body weight and to the rats in a volume of 5 ml/kg of body weight. 10 animals were used per dose. After 3 weeks, the acute toxicity was determined by the method of Litchfield and Wilcoxon.

SD rat = experiment: Acute toxicity following intraperitoneal administration, SD rats; type: in vivo; conditions: after 3 weeks, Litchfield and Wilcoxon, 30240 min
Procedure: as §1

[4] = Homo sapiens, control without addition = 100%, +/- standard deviation, 20 h, 37° C., LPS 500 ng

Structure (SMILES) | activity at 10 µM [1, 4] [%] | activity at 100 µM [1, 4] [%] | inhibitory effect on the synthesis and liberation of cytokines from human blood cells [1] | effect on the IL1β level [1] | half-life [2] [h] | metabolism of leflunomide under the experimental conditions [3] | activity at 0.1 µM ([1]; Homo sapiens, concentration 0.0001 mmol/l, control without addition = 100%, +/- standard deviation, 20 h, 37° C., LPS 500 ng) [%] | activity at 5 µM ([1]; Homo sapiens, concentration 0.005 mmol/l, control without addition = 100%, n = 2, deviation not given, 20 h, 37° C., LPS 500 ng) [%] | activity at 50 µM ([1]; Homo sapiens, concentration 0.05 mmol/l, control without addition = 100%, +/- standard deviation, 20 h, 37° C., LPS 500 ng) [%] | acute toxicity intraperitoneally LD50 (NMRI mouse) | acute toxicity intraperitoneally LD50 (SD rat)
C/C(O)=C(\C#N)C(=O)Nc1ccc(C(F)(F)F)cc1 [Leflunomide metabolite, N-(4-trifluoromethylphenyl)-2-cyano-3-hydroxycrotonamide] | 100 ± 3 | 99 ± 12 | does not exhibit this advantageous effect | practically no effect on the IL1β level |  |  |  |  |  |  | 
Cc1oncc1C(=O)Nc1ccc(C(F)(F)F)cc1 [Leflunomide, N-(4-trifluoromethylphenyl)-5-methylisoxazole-4-carboxamide] | 70 ± 8 | 17 ± 4 | strong inhibitory effect | clearly lowered | ~10 | did not, to any appreciable extent, metabolize the leflunomide to its metabolites; also recorded: metabolized only very slowly; also recorded: no appreciable metabolism | 86 ± 11 | 68 | 27 ± 6 | 185 (163-210) mg/kg | 170 (153-189) mg/kg
